From patent US20130158111A1, “Compositions and Methods for Depleting Mutant p53” (Georgetown University, priority 2011, published 2013)

Columns and labels:
[1] = test system: mutant p53 in MDA-MB-231, MDA-MB-468, DU145, SW480, and SCC-4 cells; test: Immunoblot of mutant p53 in other tumor cells with mutant p53; assay type: cell-based, Human
Text: Human H596, A549, HCT116, MDA-MB-231, MDA-MB-468, MCF-7, DU145, MCF-10A, SW480, and SCC-4 cells were obtained from ATCC (Manassas, Va.). H1299-175H cells were kindly provided by Dr. Maria Laura Avantaggiati (Georgetown University). Cells were maintained in DMEM or RPMI-1640 medium supplemented with 10% FBS (Hyclone). DMSO, PEITC, BITC, SFN, AITC, NMPEA, and monochlorobimane were purchased from Sigma-Aldrich (St. Louis, Mo.). 2,2-Diphenylethyl ITC, 4-phenoxybenzyl ITC, 4-methoxybenzyl ITC, 4-chlorobenzyl ITC, Dα-methylbenzyl ITC, trityl ITC, and 3-phenylpropyl ITC were purchased from Trans World Chemicals (Rockville, Md.). Erucin and 4-phenylbutyl ITC were from LKT Laboratories, Inc. (St. Paul, Minn.). […] All the compounds are with purities ≧95% as determined by gas-liquid chromatography or HPLC. […]
Whole cell lysates were prepared in lysis buffer (20 mM HEPES, pH 7.4, 2 mM EGTA, 50 mM β-glycerol phosphate, 1% Triton X-100, 10% glycerol, 1 mM DTT, 1 mM PMSF, […], 1 mM Na3-VO4, and 5 mM NaF). […] Proteins were detected using enhanced chemiluminescence (ECL) reagents (GE Healthcare). […]

[2] = molecular target: T1, p53 in H1299-143A cells (Homo sapiens, UniProt P04637, V143A); test: PEITC-induced p53 depletion in H1299-143A cells, mutant vs wild-type conformation; assay type: cell-based; settings: 20 μM PEITC, 24 h
T1 construct: expressed in transfected cells; host or cells: H1299-143A
Method: FIG. 2 depicts PEITC depleting p53 protein in human cancer cells with different p53 mutation but not in cells with wild-type p53. (A) Cell lines harboring mutant p53 were treated with 15 μM PEITC (MDA-MB-231, MDA-MB-468, and SCC-4) or 10 μM PEITC (DU145 and SW480) for the indicated times. (B) Cells with wild-type p53 were treated with 20 μM PEITC (HCT116, A549, and MCF-7) or 15 μM PEITC (MCF-10A) for the indicated times. […] H1299-175H cells are used as control. Both cells were treated with 20 μM PEITC for 24 h.

[3] = test system: A549, H596, MCF-7, MDA-MB-231, MDA-MB-468, HCT116 and SW480 cells; test: Caspase-3 colorimetric activity assay (apoptosis), mutant vs wild-type p53 cells; assay type: cell-based, Human; settings: PEITC 24 h; lung, breast and colon cell line sets
Method: Caspase-3 activity was measured by detection of the cleavage of a colorimetric caspase-3 substrate, N-acetyl-Asp-Glu-Val-Asp (DEVD)-p-nitroaniline, using an assay kit (R&D Systems, Inc., Minneapolis, Minn.). The assay was performed according to the instructions of the manufacturer. In brief, cells were treated with drugs for 24 h. The cells were collected and lysed in ice-cold lysis buffer provided by the manufacturer. The same amount of protein extracts (100-200 μg) were incubated in a reaction buffer containing N-acetyl-DEVD-p-nitroaniline at 37 gC for 2-4 h. The levels of the resulting proteolytic fragment p-nitroanilide were measured as optical density at 405 nm with a plate reader. The data represent the mean±SD of three independent experiments.
The role of p53 in the induction of apoptosis by ITCs is not well established and likely to be cell-specific. […] To examine this possibility, we assessed the cytotoxicity induced by PEITC in cancer cells containing either wild-type or mutant p53. Three sets of cell lines from lung, breast, and colon were used: A549 (wild-type p53) and H596 (mutant p53) lung cancer cells, MCF-7 (wild-type p53) and MDA-MB-231 and MDA-MB-468 (mutant p53) breast cancer cells, and HCT116 (wild-type p53) and SW480 (mutant p53) colon cancer cells. After treating with PEITC for 24 h, apoptosis was determined by caspase-3 activity assay.

[4] = test system: HOP-92 (R175L) cell line; test: Cell proliferation, HOP-92; assay type: cell-based; settings: Homo sapiens, 250 nM PEITC
Method: (§1) Next, the effect of PEITC exposure on tumor growth of the tumor cell lines expressing mutant or the WT p53 protein was examined. […] This hypersensitivity to PEITC being mediated through mutant p53 was next examined. The effect of PEITC on mda-mb-231 cells depleted of mutant p53 by >90% was compared to non-specific (NS) siRNA transfected cells as a control (FIG. 9B). […] Further the effect of PEITC treatment on the level of mutant p53 protein at lower doses was analyzed by western blot analysis (FIG. 9D).

[5] = test system: mda-mb-231 (R280K) cells; test: Cell proliferation, mda-mb-231; assay type: cell-based, Human
Method: as §1

[6] = test system: A549 (WT p53) cell line; test: Cell proliferation, A549; assay type: cell-based, Human
Method: as §1

S=C=NCCc1ccccc1 [PEITC, phenethyl isothiocyanate]
mutant p53 level in five cell lines ([1]; 10 or 15 μM PEITC, time-dependent): depleted mutant p53 in all five cell lines | concentration causing marked reduction in the level of mutant p53 protein ([1]; variety of tumor cell lines): ≥ 10 µM | sensitivity to PEITC-induced p53 depletion, mutant conformation (37° C.) vs wild-type conformation (32.5° C.) [2]: more sensitive | sensitivity of mutant p53 cancer cells vs wild-type cells to PEITC-induced apoptosis (caspase-3 activity) [3]: significantly more sensitive | inhibition at 0.25 µM [4]: 40% | inhibition at 1 µM ([5]; Homo sapiens, mda-mb-231 (R280K), 1 μM PEITC): 55% | sensitivity to cell growth inhibition ([5]; control (NS) siRNA transfected mda-mb-231 cells): highly sensitive | sensitivity to cell growth inhibition ([5]; mda-mb-231 cells depleted of mutant p53 by >90% (siRNA)): significant reduction in the sensitivity | reduction in cell proliferation ([6]; 12 μM PEITC): 25% | reduction in cell proliferation ([6]; 14 μM PEITC): 45%
